Test system: 12 single or co-culture in vitro tissue models of primary cells
Assay: Culture/co-culture cell model panel, extracellular biomarkers (DiscoveRx); on CCL2/MCP-1: reference of the scale not given here; on CD141/Thrombomodulin: reference of the scale not given here; on CD142/Tissue Factor: reference of the scale not given here; on CD40: reference of the scale not given here; on CD69: reference of the scale not given here; on CXCL8/IL-8: reference of the scale not given here; on IL-1alpha: reference of the scale not given here; on M-CSF: reference of the scale not given here; on SRB: reference of the scale not given here; on sPGE2: reference of the scale not given here; on sTNF-alpha: reference of the scale not given here
Type: cell-based, human
Conditions: LPS Huvec+PBMC

Cc1n[nH]c2ncc(C(=O)N3CCC[C@H]3c3ccc(Cl)cc3)cc12 [CMPD4]
IL-1alpha (1.11E3 nM): 0.016 | M-CSF (1.11E3 nM): 0.016 | SRB (1.11E3 nM): -0.126 | sPGE2 (1.11E3 nM): 0.239 | sTNF-alpha (1.11E3 nM): 0.133 | CCL2/MCP-1 (1.23E2 nM): -0.026 | CD40 (1.23E2 nM): -0.152 | CD62E/E-Selectin (1.23E2 nM): 0.006 | CD69 (1.23E2 nM): 0.00187 | CD106/VCAM-1 (1.23E2 nM): 0.093 | CD141/Thrombomodulin (1.23E2 nM): 0.087 | CD142/Tissue Factor (1.23E2 nM): 0.139 | CXCL8/IL-8 (1.23E2 nM): -0.075 | IL-1alpha (1.23E2 nM): 0.044 | M-CSF (1.23E2 nM): -0.000401 | SRB (1.23E2 nM): -0.089 | sPGE2 (1.23E2 nM): 0.245 | sTNF-alpha (1.23E2 nM): 0.048 | CCL2/MCP-1 (1.37E1 nM): 0.005 | CD40 (1.37E1 nM): -0.187 | CD62E/E-Selectin (1.37E1 nM): -0.020 | CD69 (1.37E1 nM): -0.009 | CD106/VCAM-1 (1.37E1 nM): 0.066 | CD141/Thrombomodulin (1.37E1 nM): 0.056 | CD142/Tissue Factor (1.37E1 nM): 0.073 | CXCL8/IL-8 (1.37E1 nM): -0.037 | IL-1alpha (1.37E1 nM): -0.072 | M-CSF (1.37E1 nM): 0.00323 | SRB (1.37E1 nM): -0.040 | sPGE2 (1.37E1 nM): 0.171 | sTNF-alpha (1.37E1 nM): 0.038 | CCL2/MCP-1 (3.33E3 nM): -0.067 | CD40 (3.33E3 nM): -0.112 | CD62E/E-Selectin (3.33E3 nM): 0.00461 | CD69 (3.33E3 nM): 0.059 | CD106/VCAM-1 (3.33E3 nM): 0.096 | CD141/Thrombomodulin (3.33E3 nM): 0.075 | CD142/Tissue Factor (3.33E3 nM): 0.108 | CXCL8/IL-8 (3.33E3 nM): -0.193 | IL-1alpha (3.33E3 nM): 0.066 | M-CSF (3.33E3 nM): 0.023 | SRB (3.33E3 nM): -0.130 | sPGE2 (3.33E3 nM): 0.179 | sTNF-alpha (3.33E3 nM): 0.057 | CCL2/MCP-1 (3.70E2 nM): -0.029 | CD40 (3.70E2 nM): -0.162 | CD62E/E-Selectin (3.70E2 nM): -0.010 | CD69 (3.70E2 nM): 0.00559 | CD106/VCAM-1 (3.70E2 nM): 0.093 | CD141/Thrombomodulin (3.70E2 nM): 0.092 | CD142/Tissue Factor (3.70E2 nM): 0.144 | CXCL8/IL-8 (3.70E2 nM): -0.137 | IL-1alpha (3.70E2 nM): 0.044 | M-CSF (3.70E2 nM): -0.012 | SRB (3.70E2 nM): -0.096 | sPGE2 (3.70E2 nM): 0.189 | sTNF-alpha (3.70E2 nM): 0.099 | CCL2/MCP-1 (4.12E1 nM): -0.00282 | CD40 (4.12E1 nM): -0.180 | CD62E/E-Selectin (4.12E1 nM): -0.032 | CD69 (4.12E1 nM): 0.017 | CD106/VCAM-1 (4.12E1 nM): 0.090 | CD141/Thrombomodulin (4.12E1 nM): 0.090 | CD142/Tissue Factor (4.12E1 nM): 0.115 | CXCL8/IL-8 (4.12E1 nM): -0.044 | IL-1alpha (4.12E1 nM): 0.017 | M-CSF (4.12E1 nM): -0.0023 | SRB (4.12E1 nM): -0.053 | sPGE2 (4.12E1 nM): 0.230 | sTNF-alpha (4.12E1 nM): 0.081 | CCL2/MCP-1 (4.57E0 nM): -0.00276 | CD40 (4.57E0 nM): -0.174 | CD62E/E-Selectin (4.57E0 nM): -0.017 | CD69 (4.57E0 nM): 0.019 | CD106/VCAM-1 (4.57E0 nM): 0.051 | CD141/Thrombomodulin (4.57E0 nM): 0.058 | CD142/Tissue Factor (4.57E0 nM): 0.062 | CXCL8/IL-8 (4.57E0 nM): -0.024 | IL-1alpha (4.57E0 nM): -0.00758 | M-CSF (4.57E0 nM): -0.005 | SRB (4.57E0 nM): -0.016

Source: PMC5224920, “Assessing the mechanism and therapeutic potential of modulators of the human Mediator complex-associated protein kinases” (eLife, 2016)
